Source: PubChem BioAssay AID248 (DTP/NCI, 2004)
Several values for one entry are separate records, joined by “and”; a condition that tells them apart may be missing. Identical values can stand only once. Toxic doses and inconclusive results are not listed.

Test system: L1210 leukemia ip in BDF1 mice, survival T/C
Experiment: NCI In Vivo Anticancer Drug Screen. Data for tumor model L1210 Leukemia (intraperitoneal) in B6D2F1 (BDF1) mice
Settings: endpoint: mean survival time, higher = longer survival
Method in brief: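 In this screen, tumor-bearing mice given compound are compared to those given vehicle, and their survival values are reported as a treated-to-control quotient.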

[1] = dose: 100.0 mg/kg/injection, schedule: Q01DX001 (ip), vehicle: saline
[2] = dose: 200.0 mg/kg/injection, schedule: Q01DX001 (ip), vehicle: saline
[3] = dose: 50.0 mg/kg/injection, schedule: Q01DX009 (ip), vehicle: saline with Tween-80
[4] = dose: 100.0 mg/kg/injection, schedule: Q01DX009 (ip), vehicle: saline with Tween-80
[5] = dose: 200.0 mg/kg/injection, schedule: Q01DX009 (ip), vehicle: saline with Tween-80
[6] = dose: 100.0 mg/kg/injection, schedule: Q01DX009 (ip), vehicle: saline
[7] = dose: 100.0 mg/kg/injection, schedule: Q04DX003 (ip), vehicle: Klucel (hydroxypropylcellulose) (HPC)
[8] = dose: 100.0 mg/kg/injection, schedule: Q04DX003 (ip), vehicle: saline
[9] = dose: 200.0 mg/kg/injection, schedule: Q04DX003 (ip), vehicle: Klucel (hydroxypropylcellulose) (HPC)
[10] = dose: 200.0 mg/kg/injection, schedule: Q04DX003 (ip), vehicle: saline
[11] = dose: 400.0 mg/kg/injection, schedule: Q04DX003 (ip), vehicle: Klucel (hydroxypropylcellulose) (HPC)
[12] = dose: 400.0 mg/kg/injection, schedule: Q04DX003 (ip), vehicle: saline
[13] = dose: 400.0 mg/kg/injection, schedule: Q01DX009 (ip), vehicle: saline with Tween-80
[14] = dose: 100.0 mg/kg/injection, schedule: Q04DX003 (ip), vehicle: saline with Tween-80
[15] = dose: 200.0 mg/kg/injection, schedule: Q04DX003 (ip), vehicle: saline with Tween-80
[16] = dose: 400.0 mg/kg/injection, schedule: Q04DX003 (ip), vehicle: saline with Tween-80
[17] = dose: 25.0 mg/kg/injection, schedule: Q01DX009 (ip), vehicle: saline
[18] = dose: 400.0 mg/kg/injection, schedule: Q01DX001 (ip), vehicle: saline

CCOP(=S)(NN=C1CCCC1)OCC
T/C [1]: 95 % of control | T/C [2]: 95 % of control

CCCCCCCCCCCCCC(=O)OCCC(C)C
T/C (dose: 222.0 mg/kg/injection, schedule: Q01DX Z (ip), vehicle: saline): 105 % of control | T/C (dose: 333.0 mg/kg/injection, schedule: Q01DX Z (ip), vehicle: saline): 95 % of control | T/C (dose: 500.0 mg/kg/injection, schedule: Q01DX Z (ip), vehicle: saline): 102 % of control

CC(C)=CCC(C#N)(CCN1CCCCC1)c1cccc2ccccc12 (stereo unspecified)
T/C (dose: 12.5 mg/kg/injection, schedule: Q04DX003 (ip), vehicle: Klucel (hydroxypropylcellulose) (HPC)): 99 % of control | T/C (dose: 25.0 mg/kg/injection, schedule: Q04DX003 (ip), vehicle: Klucel (hydroxypropylcellulose) (HPC)): 103 % of control | T/C (dose: 50.0 mg/kg/injection, schedule: Q04DX003 (ip), vehicle: Klucel (hydroxypropylcellulose) (HPC)): 100 % of control

ClCCC[S][Pb]([c]1ccccc1)([c]1ccccc1)[c]1ccccc1
T/C (dose: 25.0 mg/kg/injection, schedule: Q04DX002 (sc), vehicle: olive oil, sesame oil, peanut oil): 100 % of control | T/C (dose: 50.0 mg/kg/injection, schedule: Q04DX002 (sc), vehicle: olive oil, sesame oil, peanut oil): 116 % of control

Nc1ncnc2c1c(C(=O)NO)cn2C1OC(CO)C(O)C1O (stereo unspecified)
T/C (dose: 6.25 mg/kg/injection, schedule: Q01DX009 (ip), vehicle: saline): 153 % of control | T/C (dose: 12.5 mg/kg/injection, schedule: Q01DX009 (ip), vehicle: saline): 156 % of control and 171 % of control | T/C (dose: 25.0 mg/kg/injection, schedule: Q01DX005 (ip), vehicle: saline): 108 % of control

COc1ccc2c(c1)C(=O)CCC2(C)C
T/C [3]: 100 % of control | T/C [4]: 86 % of control | T/C [5]: 105 % of control

CCOC(=O)c1ccc(=O)[nH]c1
T/C (dose: 100.0 mg/kg/injection, schedule: Q01DX009 (ip), vehicle: Klucel (hydroxypropylcellulose) (HPC)): 102 % of control | T/C [6]: 88 % of control | T/C [7]: 96 % of control | T/C [8]: 116 % of control and 100 % of control | T/C (dose: 200.0 mg/kg/injection, schedule: Q01DX009 (ip), vehicle: Klucel (hydroxypropylcellulose) (HPC)): 100 % of control | T/C (dose: 200.0 mg/kg/injection, schedule: Q01DX009 (ip), vehicle: saline): 96 % of control | T/C [9]: 98 % of control | T/C [10]: 101 % of control and 100 % of control | T/C (dose: 400.0 mg/kg/injection, schedule: Q01DX009 (ip), vehicle: Klucel (hydroxypropylcellulose) (HPC)): 95 % of control | T/C (dose: 400.0 mg/kg/injection, schedule: Q01DX009 (ip), vehicle: saline): 93 % of control | T/C [11]: 90 % of control | T/C [12]: 104 % of control and 96 % of control

O=C(Nc1ccc(C(=O)O)cc1)Nc1cccc2ccccc12
T/C (dose: 100.0 mg/kg/injection, schedule: Q04DX002 (ip), vehicle: Klucel (hydroxypropylcellulose) (HPC)): 113 % of control | T/C (dose: 200.0 mg/kg/injection, schedule: Q04DX002 (ip), vehicle: Klucel (hydroxypropylcellulose) (HPC)): 93 % of control | T/C (dose: 400.0 mg/kg/injection, schedule: Q04DX002 (ip), vehicle: Klucel (hydroxypropylcellulose) (HPC)): 97 % of control

Cc1ccc(S(=O)(=O)N2CCOCC2)cc1
T/C [7]: 98 % of control | T/C [9]: 100 % of control | T/C [11]: 108 % of control

CC#CC(=O)c1ccccc1
T/C (dose: 7.5 mg/kg/injection, schedule: Q04DX003 (ip), vehicle: saline): 97 % of control | T/C (dose: 15.0 mg/kg/injection, schedule: Q04DX003 (ip), vehicle: saline): 94 % of control | T/C (dose: 30.0 mg/kg/injection, schedule: Q04DX003 (ip), vehicle: saline): 95 % of control

Cc1cc(N(CCCl)CCCl)ccc1N=Nc1ccccc1C(=O)[O-].Cc1cc(N(CCCl)CCCl)ccc1N=Nc1ccccc1C(=O)[O-].[Cu+2]
T/C (dose: 2.0 mg/kg/injection, schedule: Q01DX015 (ip), vehicle: carboxymethylcellulose (CMC)): 111 % of control | T/C (dose: 4.0 mg/kg/injection, schedule: Q01DX015 (ip), vehicle: carboxymethylcellulose (CMC)): 117 % of control | T/C (dose: 8.0 mg/kg/injection, schedule: Q01DX015 (ip), vehicle: carboxymethylcellulose (CMC)): 120 % of control | T/C (dose: 15.0 mg/kg/injection, schedule: Q01DX015 (ip), vehicle: carboxymethylcellulose (CMC)): 123 % of control

CC1C2Cc3ccc(O)cc3C1(C)CCN2C/C=C\Cl (stereo unspecified)
T/C [4]: 94 % of control | T/C [5]: 95 % of control | T/C [13]: 95 % of control

O=C(Nc1cc([N+](=O)[O-])ccc1Cl)SCc1ccccc1
T/C [4]: 102 % of control | T/C [5]: 98 % of control | T/C [13]: 102 % of control

O=C1CCC(c2ccc3c(c2)CCCC3)O1 (stereo unspecified)
T/C [3]: 97 % of control | T/C [4]: 95 % of control | T/C [14]: 105 % of control | T/C [5]: 90 % of control | T/C [15]: 105 % of control | T/C [16]: 95 % of control

CC1(C)N=C(N)N=C(N)N1c1cccc(C#N)c1
T/C (dose: 7.0 mg/kg/injection, schedule: Q01DX009 (ip), vehicle: saline): 118 % of control | T/C (dose: 10.0 mg/kg/injection, schedule: Q01DX009 (ip), vehicle: saline): 116 % of control | T/C (dose: 16.0 mg/kg/injection, schedule: Q01DX009 (ip), vehicle: saline): 113 % of control | T/C (dose: 17.0 mg/kg/injection, schedule: Q01DX009 (ip), vehicle: saline): 108 % of control | T/C [17]: 123 % of control | T/C (dose: 37.0 mg/kg/injection, schedule: Q01DX009 (ip), vehicle: saline): 151 % of control and 161 % of control | T/C (dose: 37.5 mg/kg/injection, schedule: Q01DX009 (ip), vehicle: saline): 120 % of control | T/C (dose: 56.0 mg/kg/injection, schedule: Q01DX009 (ip), vehicle: saline): 172 % of control | T/C (dose: 84.5 mg/kg/injection, schedule: Q01DX009 (ip), vehicle: saline): 150 % of control

ClCCCNCc1ccccc1
T/C [17]: 111 % of control | T/C (dose: 50.0 mg/kg/injection, schedule: Q01DX009 (ip), vehicle: saline): 97 % of control | T/C [6]: 97 % of control | T/C [8]: 94 % of control

O=c1[nH]nc(CC(Br)c2ccccc2)o1 (stereo unspecified)
T/C [1]: 91 % of control | T/C [8]: 103 % of control | T/C [2]: 90 % of control | T/C [10]: 93 % of control | T/C [18]: 99 % of control | T/C [12]: 105 % of control

CC(c1ccc(-c2ccccc2)cc1)C(Cl)c1ccccc1 (stereo unspecified)
T/C (dose: 100.0 mg/kg/injection, schedule: Q01DX001 (ip), vehicle: saline with Tween-80): 91 % of control | T/C (dose: 200.0 mg/kg/injection, schedule: Q01DX001 (ip), vehicle: saline with Tween-80): 91 % of control | T/C (dose: 400.0 mg/kg/injection, schedule: Q01DX001 (ip), vehicle: saline with Tween-80): 93 % of control

C/C(=N/NC(N)=S)c1ccco1
T/C [2]: 119 % of control | T/C [18]: 102 % of control

COC(=O)C1(CN(C)C)CCCC(CN(C)C)(C(=O)OC)C1=O (stereo unspecified)
T/C (dose: 50.0 mg/kg/injection, schedule: Q01DX Z (ip), vehicle: carboxymethylcellulose (CMC)): 100 % of control and 106 % of control | T/C (dose: 75.0 mg/kg/injection, schedule: Q01DX Z (ip), vehicle: carboxymethylcellulose (CMC)): 106 % of control and 109 % of control | T/C (dose: 115.0 mg/kg/injection, schedule: Q01DX Z (ip), vehicle: carboxymethylcellulose (CMC)): 113 % of control | T/C (dose: 160.0 mg/kg/injection, schedule: Q01DX Z (ip), vehicle: carboxymethylcellulose (CMC)): 106 % of control and 113 % of control

CC(C)CC(NC(=O)CNC(=O)CNC(=O)OCc1ccccc1)C(=O)O (stereo unspecified)
T/C [14]: 100 % of control | T/C [15]: 103 % of control | T/C [16]: 105 % of control

COc1ccc2[nH]c3c(C)cc(C=O)c(C)c3c2c1
T/C (dose: 100.0 mg/kg/injection, schedule: Q01DX001 (ip), vehicle: other): 101 % of control | T/C [14]: 102 % of control | T/C (dose: 200.0 mg/kg/injection, schedule: Q01DX001 (ip), vehicle: other): 95 % of control | T/C [15]: 101 % of control | T/C (dose: 400.0 mg/kg/injection, schedule: Q01DX001 (ip), vehicle: other): 91 % of control | T/C [16]: 96 % of control

Cc1ccc(-c2ccc(C)s2)s1
T/C (dose: 50.0 mg/kg/injection, schedule: Q01DX009 (ip), vehicle: acetone): 95 % of control | T/C (dose: 100.0 mg/kg/injection, schedule: Q01DX009 (ip), vehicle: acetone): 90 % of control | T/C [8]: 96 % of control | T/C (dose: 200.0 mg/kg/injection, schedule: Q01DX009 (ip), vehicle: acetone): 90 % of control | T/C [10]: 93 % of control | T/C [12]: 100 % of control
